Paper PMC7155171, “Probing the Open Global Health Chemical Diversity Library for Multistage-Active Starting Points for Next-Generation Antimalarials” (ACS Infectious Diseases, 2020)
Where two headings read alike, the source gives them in different places.

Tests used:
[1] = tested on: P. falciparum Dd2 (PfLuc) line expressing firefly luciferase, asexual blood stage; experiment: microbe, parasite or virus in culture; format: cell-based, Plasmodium falciparum; settings: Plasmodium falciparum
P. falciparum Dd2 = experiment: SYBR green I asexual blood stage proliferation assay (96 h); format: cell-based, Plasmodium falciparum; settings: Plasmodium falciparum, DD2, 11-pt dose response, 96hr
[2] = DD2, read-out: CDD P. falciparum Luciferase ABS 11-pt Reconfirmation Dose Response (48hr): IC50 (μM), 11-pt dose response, 48hr
[3] = DD2, 8-pt dose response, 96hr, read-out: CDD P. falciparum Luciferase ABS 8-pt Reconfirmation Dose Response (96hr): IC50
[4] = DD2, 8-pt dose response, 96hr, read-out: CDD P. falciparum Luciferase ABS 8-pt Reconfirmation Dose Response (96hr): Maximum inhibition (%)
[5] = DD2, 11-pt dose response, 48hr, read-out: CDD P. falciparum Luciferase ABS 11-pt Reconfirmation Dose Response (48hr): Maximum inhibition (%)
[6] = DD2, 11-pt dose response, 96hr, read-out: CDD P. falciparum Luciferase ABS 11-pt Reconfirmation Dose Response (96hr): IC50
[7] = DD2, 11-pt dose response, 96hr, read-out: CDD P. falciparum Luciferase ABS 11-pt Reconfirmation Dose Response (96hr): Maximum inhibition (%)
[8] = Sybr Green I, read-out: CDD P. falciparum Sybr Green I ABS 11-pt Reconfirmation Dose Response (96hr): IC50
[9] = Sybr Green I, read-out: CDD P. falciparum Sybr Green I ABS 11-pt Reconfirmation Dose Response (96hr): Maximum inhibition (%)
[10] = DD2, read-out: P. falciparum Luciferase ABS 11-pt Reconfirmation Dose Response (48hr): IC50, 11-pt dose response, 48hr
[11] = DD2, 8-pt dose response, 96hr, read-out: P. falciparum Luciferase ABS 8-pt Reconfirmation Dose Response (96hr): IC50
[12] = DD2, 8-pt dose response, 96hr, read-out: P. falciparum Luciferase ABS 8-pt Reconfirmation Dose Response (96hr): Maximum inhibition (%)
[13] = DD2, 11-pt dose response, 96hr, read-out: P. falciparum Luciferase ABS 11-pt Reconfirmation Dose Response (96hr): IC50
[14] = DD2, 11-pt dose response, 96hr, read-out: P. falciparum Luciferase ABS 11-pt Reconfirmation Dose Response (96hr): Maximum inhibition (%)
[15] = read-out: P. falciparum Sybr Green I ABS 11-pt Reconfirmation Dose Response (96hr): IC50
[16] = read-out: P. falciparum Sybr Green I ABS 11-pt Reconfirmation Dose Response (96hr): Maximum inhibition (%)

| SMILES | IC50 [1, 2] [µM] | IC50 [1, 3] [µM] | Emax [1, 4] [%] | Emax [1, 5] [%] | IC50 [1, 6] [µM] | Emax [1, 7] [%] | IC50 (P. falciparum Dd2; [8]) [nM] | Emax (P. falciparum Dd2; [9]) [%] | IC50 [1, 10] [µM] | IC50 [1, 11] [µM] | Emax [1, 12] [%] | Emax ([1]; DD2, 11-pt dose response, 48hr, read-out: P. falciparum Luciferase ABS 11-pt Reconfirmation Dose Response (48hr): Maximum inhibition (%)) [%] | IC50 [1, 13] [µM] | Emax [1, 14] [%] | IC50 (P. falciparum Dd2; [15]) [nM] | Emax (P. falciparum Dd2; [16]) [%] |
| --- | --- | --- | --- | --- | --- | --- | --- | --- | --- | --- | --- | --- | --- | --- | --- | --- |
| Brc1ccc(C2(CNCc3cc[nH]c3)CCOCC2)cc1 [DDD01076992] | 0.715 | 0.62 | 82.1 | 95.6 | 0.407 | 99.6 | 3080 | 54 | – | – | – | – | – | – | – | – |
| COCCC1(CNC(=O)Nc2ccnc(C)c2)CCCC1 [DDD01077091] | > 12.5 | 1.04 | 79.6 | 48.9 | > 1.39 | 82 | > 12500 | 47.9 | – | – | – | – | – | – | – | – |
| CN1CCN(S(=O)(=O)c2ccc(Cl)c(Cl)c2)c2cnccc21 [DDD01077309] | 6.77 | 0.57 | 92.2 | 78.7 | 1.46 | 95.5 | 5690 | 82.8 | – | – | – | – | – | – | – | – |
| CC(C)C(CNCc1cccc2c1OCO2)N1CCOCC1 (centres unmarked) [DDD01077478] | > 12.5 | 0.56 | 86.4 | 52.1 | 2.57 | 85.2 | 1890 | 62.1 | – | – | – | – | – | – | – | – |
| Cc1n[nH]cc1CNC1(c2ccc(F)cc2)CCCC1 [DDD01077733] | > 12.5 | 0.59 | 86.6 | 59 | 2.1 | 87 | > 1390 | 59 | – | – | – | – | – | – | – | – |
| CC(NCCN1CCC(N(C)C)CC1)c1ccc(Cl)s1 (centres unmarked) [DDD01077862] | 4.33 | 0.92 | 87.7 | 83.2 | 1.35 | 97.3 | 2870 | 89 | – | – | – | – | – | – | – | – |
| NC(=O)CN1CCC(Nc2ccnc3ccc(Cl)cc23)CC1 [DDD01078433] | 1.98 | 0.96 | – | 99.5 | 1.05 | 100 | 1020 | 98.2 | – | – | – | – | – | – | – | – |
| CS(=O)(=O)CCCNC1(c2cccc(Cl)c2)CCCC1 [DDD01078792] | – | – | – | – | – | – | – | – | > 12.5 | 1.66 | 85 | 68.8 | 3.02 | 88 | > 4160 | 73.6 |
| Cc1cccc(C2(NCCCS(C)(=O)=O)CCCC2)c1 [DDD01078804] | 12.1 | 0.66 | 85 | 56.6 | 1.93 | 85.9 | 6570 | 74.2 | – | – | – | – | – | – | – | – |
| Cc1cn2c(n1)C(CNCc1ccc(C)s1)CCC2 (centres unmarked) [DDD01079169] | 1.64 | 0.63 | 93.4 | 93.3 | 0.471 | 100 | 2250 | 83.8 | – | – | – | – | – | – | – | – |
| O=C(CN1CCCC(c2ccn[nH]2)C1)Nc1nc2c(s1)CCC2 (centres unmarked) [DDD01079497] | 0.618 | 0.22 | 90.5 | – | 0.451 | 97.6 | 192 | 73.2 | – | – | – | – | – | – | – | – |
| Cc1cc(C2CCCN(CC(=O)Nc3nc4c(s3)CCC4)C2)n[nH]1 (centres unmarked) [DDD01079504] | 0.456 | 0.28 | 81.5 | 84.9 | 0.388 | 97.8 | 179 | 71.3 | – | – | – | – | – | – | – | – |
| Cc1cc(Br)cnc1NCCN1CCC(N(C)C)CC1 [DDD01079597] | 7.01 | 0.51 | 92.4 | 87.3 | 1.15 | 99.5 | 3190 | 92.7 | – | – | – | – | – | – | – | – |
| COc1cccc(CNC(CN2CCN(C)CC2)c2ccccc2)c1 (centres unmarked) [DDD01079897] | 2.58 | 0.38 | 91 | 83.2 | 0.79 | 98.1 | 1650 | 94.5 | – | – | – | – | – | – | – | – |
| Cc1ccc(CNC(CN2CCN(C)CC2)c2ccccc2)cc1 (centres unmarked) [DDD01079898] | 4.31 | 0.26 | 91.3 | 88.2 | 1.21 | 98.8 | 1360 | 95.9 | – | – | – | – | – | – | – | – |
| Cc1cccc(CNC(CN2CCN(C)CC2)c2ccccc2)c1 (centres unmarked) [DDD01079901] | 2.73 | 0.24 | 91.5 | 89.2 | 0.53 | 99 | 449 | 98.3 | – | – | – | – | – | – | – | – |
| NCC1(c2cccc(Br)c2)CCOCC1 [DDD01079955] | 4.79 | 0.84 | 87.3 | 58.8 | 1.63 | 85.9 | > 4160 | 76.8 | – | – | – | – | – | – | – | – |
| COCCCN1CCCN(C(C)C(=O)Nc2cccc(I)c2)CC1 (centres unmarked) [DDD01080015] | 2.64 | 0.87 | 92 | 71.5 | 1.94 | 94.8 | 10600 | 77.7 | – | – | – | – | – | – | – | – |
| c1cnn(C[C@@H]2C[C@@H]3CN(CC4CC4)CC[C@@H]3N2c2nccs2)c1 [DDD01081619] | – | – | – | – | – | – | – | – | 2.56 | 1.48 | 94.2 | – | 1.87 | 99.5 | 2700 | 73.6 |
| Cc1ccc(CNC2CC3(CCN(CCO)CC3)c3ccccc32)s1 (centres unmarked) [DDD01082017] | 3.82 | 0.41 | 91 | 80.4 | 1.07 | 98 | 2900 | 89.2 | – | – | – | – | – | – | – | – |
| COCCN1CCC2(CC1)CC(NCc1ccc(C)s1)c1ccccc12 (centres unmarked) [DDD01082023] | 7.58 | 0.63 | 90 | – | 1.55 | 96.4 | 2420 | 82.4 | – | – | – | – | – | – | – | – |
| Cc1cc(C)cc(CN2C[C@H]3COC[C@H](N4CCN(C)CC4)[C@H]3C2)c1 [DDD01083756] | 2.44 | 0.23 | – | 79.9 | 0.791 | 97.2 | 1080 | – | – | – | – | – | – | – | – | – |
